Assay results as given in US20250215030A1, “STAT MODULATORS AND USES THEREOF” (Recludix Pharma, Inc., priority 2022, published 2025).

How the values were obtained:
[1] = biological target: T1, Recombinant STAT3 protein (STAT3(G127-I722)) (Homo sapiens, UniProt P40763); test: STAT3 Fluorescence Polarization (FP) Assay; format: binding; settings: STAT3(G127-I722) 25 nM, probe 5-FAM-GpYLPQTV-NH2 2 nM, 45-minute incubation
T1 construct: STAT3(G127-I722)
Method in brief: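 Serially diluted compounds (1% DMSO) were mixed with 2 nM fluorescent phosphotyrosine peptide and 25 nM STAT3 construct G127-I722, pH 7.4, incubated 45 min at room temperature. IC50 values from fitted polarization curves are reported as categories A (≤100 nM), B, C, D (>10 μM).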

[2] = biological target: T2, Recombinant STAT6 protein (STAT6(W123-T658)) (Homo sapiens, UniProt P42226); test: STAT6 Fluorescence Polarization (FP) Assay; format: binding; settings: STAT6(W123-T658) 250 nM, probe 5-FAM-ApYKPFQDLI-NH2 2 nM, 45-minute incubation
T2 construct: STAT6(W123-T658)
T2 sequence (P42226 123-658): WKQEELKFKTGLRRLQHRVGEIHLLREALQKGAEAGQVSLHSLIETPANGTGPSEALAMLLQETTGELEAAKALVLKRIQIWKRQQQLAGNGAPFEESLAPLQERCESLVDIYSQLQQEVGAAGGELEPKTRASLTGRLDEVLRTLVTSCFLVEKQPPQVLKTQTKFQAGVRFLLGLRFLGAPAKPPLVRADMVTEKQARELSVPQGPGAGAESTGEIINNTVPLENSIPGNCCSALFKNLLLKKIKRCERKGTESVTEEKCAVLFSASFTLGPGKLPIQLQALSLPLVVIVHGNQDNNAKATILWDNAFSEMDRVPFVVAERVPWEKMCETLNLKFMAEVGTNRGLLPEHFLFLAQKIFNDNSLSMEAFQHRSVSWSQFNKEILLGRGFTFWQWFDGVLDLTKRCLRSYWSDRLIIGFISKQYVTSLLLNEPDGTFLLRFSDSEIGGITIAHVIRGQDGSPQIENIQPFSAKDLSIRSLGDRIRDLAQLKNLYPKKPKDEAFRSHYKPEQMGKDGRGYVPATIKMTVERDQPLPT
Method in brief: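 Competitive displacement of a fluorescent phosphotyrosine peptide (2 nM) from recombinant STAT6 W123-T658 (250 nM), 45 min at room temperature in 10 mM HEPES pH 7.4, 50 mM NaCl, 2 mM DTT. mP fitted against log compound for IC50, grouped A (≤300 nM) to D (>30 μM).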

T1 sequence (P40763 127-722, species assumed): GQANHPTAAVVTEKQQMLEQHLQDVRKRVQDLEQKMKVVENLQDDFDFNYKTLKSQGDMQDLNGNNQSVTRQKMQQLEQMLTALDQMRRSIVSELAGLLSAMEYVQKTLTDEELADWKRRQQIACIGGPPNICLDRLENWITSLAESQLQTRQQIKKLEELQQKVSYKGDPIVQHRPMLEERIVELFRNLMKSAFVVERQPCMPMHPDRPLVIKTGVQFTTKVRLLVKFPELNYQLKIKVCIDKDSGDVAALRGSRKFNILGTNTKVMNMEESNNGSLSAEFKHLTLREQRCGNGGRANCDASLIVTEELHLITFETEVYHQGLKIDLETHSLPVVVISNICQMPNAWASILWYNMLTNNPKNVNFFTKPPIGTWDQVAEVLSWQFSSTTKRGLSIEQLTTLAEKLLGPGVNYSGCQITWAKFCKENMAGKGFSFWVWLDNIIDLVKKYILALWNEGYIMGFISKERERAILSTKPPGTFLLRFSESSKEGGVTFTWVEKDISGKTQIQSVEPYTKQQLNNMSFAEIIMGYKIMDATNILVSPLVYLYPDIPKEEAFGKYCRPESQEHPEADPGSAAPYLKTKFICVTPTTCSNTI

Row | SMILES | IC50 [1] [µM] | IC50 [2] [µM]
1 | Cc1cc(C2CN(C(=O)[C@@H]3CC[C@@H]4C[C@H]5C[C@H]5C[C@H](NC(=O)c5cc6cc(C(F)P(=O)(O)O)ccc6s5)C(=O)N43)C2)on1 (stereo partly drawn) [Example 328, (fluoro(2-(((3S,6S,7aS,8aR,9aR)-3-(3-(3-methylisoxazol-5-yl)azetidine-1-carbonyl)-5-oxodecahydro-1H-cyclopropa[d]pyrrolo[1,2-a]azocin-6-yl)carbamoyl)benzo[b]thiophen-5-yl)methyl)phosphonic acid] | 0.1 to 1 | 3 to 30
2 | NC(=O)N1C[C@H](NC(=O)[C@@H]2CC[C@@H]3C[C@H]4C[C@H]4C[C@H](NC(=O)c4cc5cc(C(F)P(=O)(O)O)ccc5s4)C(=O)N32)[C@@H](F)C1 (stereo partly drawn) [Example 330, ((2-(((3S,6S,7aS,8aR,9aR)-3-(((3S,4S)-1-carbamoyl-4-fluoropyrrolidin-3-yl)carbamoyl)-5-oxodecahydro-1H-cyclopropa[d]pyrrolo[1,2-a]azocin-6-yl)carbamoyl)benzo[b]thiophen-5-yl)fluoromethyl)phosphonic acid] | < 0.1 | 0.3 to 3
3 | Cn1cnnc1C1CN(C(=O)[C@@H]2CC[C@@H]3C[C@@H]4C[C@@H]4C[C@H](NC(=O)c4cc5cc(C(F)P(=O)(O)O)ccc5s4)C(=O)N32)C1 (stereo partly drawn) [Example 331, (fluoro(2-(((3S,6S,7aR,8aS,9aR)-3-(3-(4-methyl-4H-1,2,4-triazol-3-yl)azetidine-1-carbonyl)-5-oxodecahydro-1H-cyclopropa[d]pyrrolo[1,2-a]azocin-6-yl)carbamoyl)benzo[b]thiophen-5-yl)methyl)phosphonic acid] | < 0.1 | 3 to 30
4 | CS(=O)(=O)CC1CN(C(=O)[C@@H]2CC[C@@H]3C[C@H]4C[C@H]4C[C@H](NC(=O)c4cc5cc(C(F)P(=O)(O)O)ccc5s4)C(=O)N32)C1 (stereo partly drawn) [Example 333, (fluoro(2-(((3S,6S,7aS,8aR,9aR)-3-(3-((methylsulfonyl)methyl)azetidine-1-carbonyl)-5-oxodecahydro-1H-cyclopropa[d]pyrrolo[1,2-a]azocin-6-yl)carbamoyl)benzo[b]thiophen-5-yl)methyl)phosphonic acid] | < 0.1 | 3 to 30
5 | O=C(N[C@H]1C[C@@H]2C[C@@H]2C[C@H]2CC[C@@H](C(=O)N3CC(Oc4cnccn4)C3)N2C1=O)c1cc2cc(CP(=O)(O)O)ccc2s1 [Example 334, ((2-(((3S,6S,7aS,8aR,9aR)-5-oxo-3-(3-(pyrazin-2-yloxy)azetidine-1-carbonyl)decahydro-1H-cyclopropa[d]pyrrolo[1,2-a]azocin-6-yl)carbamoyl)benzo[b]thiophen-5-yl)methyl)phosphonic acid] | 1 to 10 | > 30
6 | Cn1cc(OC2CN(C(=O)[C@@H]3CC[C@@H]4C[C@H]5C[C@H]5C[C@H](NC(=O)c5cc6cc(CP(=O)(O)O)ccc6s5)C(=O)N43)C2)cn1 [Example 335, ((2-(((3S,6S,7aS,8aR,9aR)-3-(3-((1-methyl-1H-pyrazol-4-yl)oxy)azetidine-1-carbonyl)-5-oxodecahydro-1H-cyclopropa[d]pyrrolo[1,2-a]azocin-6-yl)carbamoyl)benzo[b]thiophen-5-yl)methyl)phosphonic acid] | 1 to 10 | > 30
7 | COc1cc(C2CN(C(=O)[C@@H]3CC[C@@H]4C[C@H]5C[C@H]5C[C@H](NC(=O)c5cc6cc(C(F)P(=O)(O)O)ccc6s5)C(=O)N43)C2)on1 (stereo partly drawn) [Example 336, (fluoro(2-(((3S,6S,7aS,8aR,9aR)-3-(3-(3-methoxyisoxazol-5-yl)azetidine-1-carbonyl)-5-oxodecahydro-1H-cyclopropa[d]pyrrolo[1,2-a]azocin-6-yl)carbamoyl)benzo[b]thiophen-5-yl)methyl)phosphonic acid] | 0.1 to 1 | 3 to 30
8 | Cc1cc(C2CN(C(=O)[C@@H]3CC[C@@H]4C[C@H]5C[C@H]5C[C@H](NC(=O)c5cc6cc(C(F)P(=O)(O)O)ccc6s5)C(=O)N43)C2)no1 (stereo partly drawn) [Example 337, (fluoro(2-(((3S,6S,7aS,8aR,9aR)-3-(3-(5-methylisoxazol-3-yl)azetidine-1-carbonyl)-5-oxodecahydro-1H-cyclopropa[d]pyrrolo[1,2-a]azocin-6-yl)carbamoyl)benzo[b]thiophen-5-yl)methyl)phosphonic acid] | < 0.1 | 3 to 30
9 | O=C(N[C@H]1C[C@@H]2C[C@@H]2C[C@H]2CC[C@@H](C(=O)N[C@H]3CN(c4ncc[nH]4)C[C@@H]3F)N2C1=O)c1cc2cc(C(F)P(=O)(O)O)ccc2s1 (stereo partly drawn) [Example 339, (fluoro(2-(((3S,6S,7aS,8aR,9aR)-3-(((3S,4S)-4-fluoro-1-(1H-imidazol-2-yl)pyrrolidin-3-yl)carbamoyl)-5-oxodecahydro-1H-cyclopropa[d]pyrrolo[1,2-a]azocin-6-yl)carbamoyl)benzo[b]thiophen-5-yl)methyl)phosphonic acid] | < 0.1 | 0.3 to 3
10 | NC(=O)N1C[C@H](NC(=O)[C@@H]2CC[C@@H]3C[C@H]4C[C@H]4C[C@H](NC(=O)c4cc5cc(C(F)P(=O)(O)O)ccc5s4)C(=O)N32)C(F)(F)C1 (stereo partly drawn) [Example 340, ((2-(((3S,6S,7aS,8aR,9aR)-3-(((S)-1-carbamoyl-4,4-difluoropyrrolidin-3-yl)carbamoyl)-5-oxodecahydro-1H-cyclopropa[d]pyrrolo[1,2-a]azocin-6-yl)carbamoyl)benzo[b]thiophen-5-yl)fluoromethyl)phosphonic acid] | < 0.1 | 3 to 30
11 | CS(=N)(=O)CC1CN(C(=O)[C@@H]2CC[C@@H]3C[C@H]4C[C@H]4C[C@H](NC(=O)c4cc5cc(C(F)P(=O)(O)O)ccc5s4)C(=O)N32)C1 (stereo partly drawn) [Example 341, (fluoro(2-(((3S,6S,7aS,8aR,9aR)-3-(3-((S-methylsulfonimidoyl)methyl)azetidine-1-carbonyl)-5-oxodecahydro-1H-cyclopropa[d]pyrrolo[1,2-a]azocin-6-yl)carbamoyl)benzo[b]thiophen-5-yl)methyl)phosphonic acid] | < 0.1 | 3 to 30
12 | O=C(N[C@H]1C[C@@H]2C[C@@H]2C[C@H]2CC[C@@H](C(=O)N3CC(Oc4ncccn4)C3)N2C1=O)c1cc2cc(CP(=O)(O)O)ccc2s1 [Example 342, ((2-(((3S,6S,7aS,8aR,9aR)-5-oxo-3-(3-(pyrimidin-2-yloxy)azetidine-1-carbonyl)decahydro-1H-cyclopropa[d]pyrrolo[1,2-a]azocin-6-yl)carbamoyl)benzo[b]thiophen-5-yl)methyl)phosphonic acid] | 1 to 10 | > 30
13 | CCc1ccncc1C1CN(C(=O)[C@@H]2CC[C@@H]3C[C@@H]4C[C@@H]4C[C@H](NC(=O)c4cc5cc(CP(=O)(O)O)ccc5s4)C(=O)N32)C1 [Example 343, ((2-(((3S,6S,7aR,8aS,9aR)-3-(3-(4-ethylpyridin-3-yl)azetidine-1-carbonyl)-5-oxodecahydro-1H-cyclopropa[d]pyrrolo[1,2-a]azocin-6-yl)carbamoyl)benzo[b]thiophen-5-yl)methyl)phosphonic acid] | < 0.1 | > 30
14 | O=C(N[C@H]1C[C@@H]2C[C@@H]2C[C@H]2CC[C@@H](C(=O)N[C@H]3CN(c4nc[nH]n4)C[C@@H]3F)N2C1=O)c1cc2cc(C(F)P(=O)(O)O)ccc2s1 (stereo partly drawn) [Example 347, (fluoro(2-(((3S,6S,7aS,8aR,9aR)-3-(((3S,4S)-4-fluoro-1-(1H-1,2,4-triazol-3-yl)pyrrolidin-3-yl)carbamoyl)-5-oxodecahydro-1H-cyclopropa[d]pyrrolo[1,2-a]azocin-6-yl)carbamoyl)benzo[b]thiophen-5-yl)methyl)phosphonic acid] | 0.1 to 1 | 3 to 30
